In the supplement of paper PMC10627819:

Legend:
Test in all cases: fitness (endpoint OD595 vs no drug) (fraction); higher = more growth
[1] = tested on: S. pneumoniae D39V
In short: (§1)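 Each well of a 384-well plate received 30 µl of culture at OD595 0.01, or 55 µl for S. pneumoniae. TSB, LB Lennox or CY served as media at 37 °C. OD595 was taken every 30 min for 14 h and corrected by subtracting the first reading. Fitness is the optical density at stationary-phase entry divided by the robust mean of no-drug controls, capped at 1.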

[2] = tested on: S. aureus Newman
In short: as §1

[3] = tested on: B. subtilis 168
In short: as §1

COc1cccc2c1C(=O)c1c(O)c3c(c(O)c1C2=O)C[C@@](O)(C(=O)CO)C[C@@H]3O[C@H]1C[C@H](N)[C@H](O)[C@H](C)O1 [Doxorubicin] + CC1=C(C(=O)O)N2C(=O)[C@@H](NC(=O)[C@H](N)c3ccccc3)[C@H]2SC1 [Cephalexin]
fitness, one replicate
Details	first compound 0.25 µg/mL	first compound 0.5 µg/mL	first compound 0.625 µg/mL	first compound 1 µg/mL	first compound 1.25 µg/mL	first compound 2.5 µg/mL
[1], partner 0.125 µg/mL	0.866	0.98	–	0.905	–	–
[1], partner 0.25 µg/mL	0.862	0.876	–	0.861	–	–
[1], partner 0.5 µg/mL	0.878	0.872	–	0.898	–	–
[3], partner 1 µg/mL	–	–	≥ 1	–	0.98	0.703

fitness
Details	first compound 0.25 µg/mL	first compound 0.5 µg/mL	first compound 0.625 µg/mL	first compound 1 µg/mL	first compound 1.25 µg/mL	first compound 2.5 µg/mL
[1], partner 2 µg/mL	0.0496	0.0845	–	0.105	–	–
[1], partner 4 µg/mL	0.0361	0.0467	–	0.0242	–	–
[2], partner 0.25 µg/mL	–	–	0.771	–	0.824	0.744
[2], partner 0.5 µg/mL	–	–	0.844	–	0.834	0.758
[2], partner 1 µg/mL	–	–	0.823	–	0.861	0.83
[3], partner 0.125 µg/mL	–	–	0.917	–	0.897	0.733
[3], partner 0.25 µg/mL	–	–	0.964	–	0.89	0.68
[3], partner 0.5 µg/mL	–	–	0.969	–	0.941	0.655

O=C(O)c1cn(C2CC2)c2cc(N3CCNCC3)c(F)cc2c1=O [Ciprofloxacin] + CC1=C(C(=O)O)N2C(=O)[C@@H](NC(=O)[C@H](N)c3ccccc3)[C@H]2SC1 [Cephalexin]
one replicate
Details	fitness
[1], first compound 0.125 µg/mL, partner 0.125 µg/mL	≥ 1
[1], first compound 0.125 µg/mL, partner 0.25 µg/mL	0.996
[1], first compound 0.125 µg/mL, partner 0.5 µg/mL	0.942
[1], first compound 0.25 µg/mL, partner 0.125 µg/mL	0.82
[1], first compound 0.25 µg/mL, partner 0.25 µg/mL	0.849
[1], first compound 0.25 µg/mL, partner 0.5 µg/mL	0.886
[1], first compound 0.25 µg/mL, partner 1 µg/mL	0.686
[1], first compound 0.25 µg/mL, partner 2 µg/mL	0
[1], first compound 0.25 µg/mL, partner 4 µg/mL	0
[1], first compound 0.5 µg/mL, partner 0.125 µg/mL	0.473
[1], first compound 0.5 µg/mL, partner 0.25 µg/mL	0.552
[1], first compound 0.5 µg/mL, partner 0.5 µg/mL	0.583
[3], first compound 0.0098 µg/mL, partner 1 µg/mL	0.951
[3], first compound 0.0195 µg/mL, partner 1 µg/mL	0.75
[3], first compound 0.039 µg/mL, partner 1 µg/mL	0.183

Details	fitness
[1], first compound 0.125 µg/mL, partner 2 µg/mL	0.0158
[1], first compound 0.125 µg/mL, partner 4 µg/mL	0.0138
[1], first compound 0.5 µg/mL, partner 2 µg/mL	0.0332
[1], first compound 0.5 µg/mL, partner 4 µg/mL	0.0303
[2], first compound 0.0375 µg/mL, partner 0.25 µg/mL	0.732
[2], first compound 0.0375 µg/mL, partner 0.5 µg/mL	0.77
[2], first compound 0.0375 µg/mL, partner 1 µg/mL	0.753
[2], first compound 0.075 µg/mL, partner 0.25 µg/mL	0.727
[2], first compound 0.075 µg/mL, partner 0.5 µg/mL	0.725
[2], first compound 0.075 µg/mL, partner 1 µg/mL	0.733
[3], first compound 0.0098 µg/mL, partner 0.125 µg/mL	0.886
[3], first compound 0.0098 µg/mL, partner 0.25 µg/mL	0.88
[3], first compound 0.0098 µg/mL, partner 0.5 µg/mL	0.829
[3], first compound 0.0195 µg/mL, partner 0.125 µg/mL	0.69
[3], first compound 0.0195 µg/mL, partner 0.25 µg/mL	0.68
[3], first compound 0.0195 µg/mL, partner 0.5 µg/mL	0.705
[3], first compound 0.039 µg/mL, partner 0.125 µg/mL	0.0501
[3], first compound 0.039 µg/mL, partner 0.25 µg/mL	0.0506
[3], first compound 0.039 µg/mL, partner 0.5 µg/mL	0.062

O=C(O)c1cn(C2CC2)c2cc(N3CCNCC3)c(F)cc2c1=O [Ciprofloxacin] + CO[C@@]12[C@H](COC(N)=O)C3=C(C(=O)C(C)=C(N)C3=O)N1C[C@@H]1N[C@@H]12 [Mitomycin C]
Details	fitness
[1], first compound 0.125 µg/mL, partner 0.001075 µg/mL	0.917
[1], first compound 0.125 µg/mL, partner 0.002 µg/mL	0.75
[1], first compound 0.125 µg/mL, partner 0.00215 µg/mL	0.892
[1], first compound 0.125 µg/mL, partner 0.004 µg/mL	0.632
[1], first compound 0.125 µg/mL, partner 0.0043 µg/mL	0.766
[1], first compound 0.125 µg/mL, partner 0.008 µg/mL	0.322
[1], first compound 0.25 µg/mL, partner 0.001075 µg/mL	0.861
[1], first compound 0.25 µg/mL, partner 0.00215 µg/mL	0.822
[1], first compound 0.25 µg/mL, partner 0.0043 µg/mL	0.736
[1], first compound 0.5 µg/mL, partner 0.001075 µg/mL	0.658
[1], first compound 0.5 µg/mL, partner 0.00215 µg/mL	0.643
[1], first compound 0.5 µg/mL, partner 0.0043 µg/mL	0.523
[1], first compound 0.5 µg/mL, partner 0.008 µg/mL	0.188
[2], first compound 0.0375 µg/mL, partner 0.0156 µg/mL	0.609
[2], first compound 0.0375 µg/mL, partner 0.0312 µg/mL	0.557
[2], first compound 0.0375 µg/mL, partner 0.0625 µg/mL	0.366
[2], first compound 0.075 µg/mL, partner 0.0156 µg/mL	0.573
[2], first compound 0.075 µg/mL, partner 0.0312 µg/mL	0.497
[2], first compound 0.075 µg/mL, partner 0.0625 µg/mL	0.219
[2], first compound 0.15 µg/mL, partner 0.0156 µg/mL	0.152
[2], first compound 0.15 µg/mL, partner 0.0312 µg/mL	0.0809
[2], first compound 0.15 µg/mL, partner 0.0625 µg/mL	0.0294

[1], first compound 0.25 µg/mL, one replicate
Details	fitness
partner 0.002 µg/mL	0.541
partner 0.004 µg/mL	0.394
partner 0.008 µg/mL	0.154

CO/N=C(\C(=O)N[C@@H]1C(=O)N2C(C(=O)O)=C(COC(N)=O)CS[C@H]12)c1ccco1 [Cefuroxime] + N[C@@H]1CONC1=O [Cycloserine D]
fitness, one replicate
Details	first compound 0.04875 µg/mL	first compound 0.0975 µg/mL	first compound 0.195 µg/mL	first compound 0.39 µg/mL	first compound 0.78 µg/mL	first compound 1.562 µg/mL	first compound 3.125 µg/mL	first compound 6.25 µg/mL
[2], partner 0.375 µg/mL	0.926	0.887	0.935	–	–	–	–	–
[2], partner 0.75 µg/mL	0.965	0.822	0.908	–	–	–	–	–
[2], partner 1.5 µg/mL	0.871	0.861	0.976	–	–	–	–	–
[3], partner 0.125 µg/mL	–	–	–	0.337	0.303	0.361	0.287	0.201
[3], partner 0.25 µg/mL	–	–	–	0.404	0.319	0.305	0.22	0.173
[3], partner 0.5 µg/mL	–	–	–	0.306	0.284	0.228	0.204	0.111

fitness, [3]
Details	partner 0.125 µg/mL	partner 0.25 µg/mL	partner 0.5 µg/mL
first compound 0.0975 µg/mL	0.677	0.63	0.648
first compound 0.195 µg/mL	0.396	0.41	0.372
